Experiment [1] concerns mice. Nature of the experiment: Tail immersion test (50° C.). The format is in vivo. Here is the method: (A) Experimental protocol summary used. (B) Mice were subcutaneously injected with two different doses of the 5-HT7 receptor agonist Serodolin, 1 mg/kg or 5 mg/kg and 10 min later their tail extremity was immersed in water heated to 50 degrees. […] The effect of injections (Serodolin or E55888) was evaluated at TO, 30 min and 60 min corresponding to 10, 40 and 70 min after compound injections. […] Their tail extremity was immersed in water heated to 50 degrees at TO (E) or 30 min later (F) corresponding to 10 and 40 min after agonist injections. […] Statistical analysis was done using Tukey's multiple comparison test.
Tail immersion test. Nociception was assessed with the tail immersion test, 10 min and 40 min after E55888 (5 mg/kg) or Serodolin (5 mg/kg) tail subcutaneous injections, in the water heated to 50° C. Vehicle (20% DMSO, 5% Tween 80 diluted in PBS solution) was used as a control group. These different groups were intraperitoneally injected (+) or not (−) with the 5-HT7R antagonist SB269960 (5 mg/kg) 10 min before the ligand injection. The tail withdrawal latency (s) was measured for each animal.

For experiment [2], the system named is neuronal culture endogenously expressing 5-HT7R. Nature of the experiment: pERK immunocytochemistry in mixed neuronal cultures. Type of experiment: cell-based, mice. Particulars: 10 μM; 7, 15, 30 min. The text has this:
FIG. 4: Serodolin stimulation induces ERK phosphorylation in neuronal culture. […] These images are representative of two independent experiments. (B) pERK fluorescence intensity (AU) from immunofluorescence staining. Results represent mean±SEM of values obtained in two independent experiments (150-200 cells counted per group). ****P<0.0001 ***P<0.001 **P<0.01 *P<0.05. Statistical analysis was done using Tukey's multiple comparison test. Cerebral cortex from embryos (E15) mice were collected and mechanically dissociated in 1 mL of HBSS (-Ca^2+) (Sigma) with HEPES (H3375, Sigma). […] Neuronal differentiation was performed in 24-well plates, during 7 days with 3 medium changes per week. Stimulated neuronal culture were fixed with 4% paraformaldehyde in PBS during 10 min and then washed with PBS. Cells were saturated with 0.3% Triton X-100 in 1% BSA in TBS-FCS 10% for 1 hr, followed by three washes in TBS and incubated overnight with rabbit anti-pERK (9101 1/200, Cell Signaling) and mouse anti-MAP2 (119942 1/250, Sigma), anti-GFAP (G61711/250, Sigma) in TBS with 1% BSA, 10% FCS and 0.3% Triton X-100. […] Images were processed with the Zen software analyzed with Image J.

Experiment [3] deals with human 5-HT2Cedited receptor (Homo sapiens, UniProt P28335). Nature of the experiment: Radioligand binding competition, 5-HT2Cedited. Particulars: selectivity panel.

The text below walks through data of patent US20240199555A1, “APPLICATIONS OF BIASED LIGANDS OF THE SEROTONIN 5-HT7 RECEPTOR FOR THE TREATMENT OF PAIN, MULTIPLE SCLEROSIS AND THE CONTROL OF THERMOREGULATION” (Centre National de la Recherche Scientifique, priority 2021, published 2024).

Bounds are passed on as bounds.

human 5-HT2Cedited receptor, sequence (P28335 33-458 limits assumed): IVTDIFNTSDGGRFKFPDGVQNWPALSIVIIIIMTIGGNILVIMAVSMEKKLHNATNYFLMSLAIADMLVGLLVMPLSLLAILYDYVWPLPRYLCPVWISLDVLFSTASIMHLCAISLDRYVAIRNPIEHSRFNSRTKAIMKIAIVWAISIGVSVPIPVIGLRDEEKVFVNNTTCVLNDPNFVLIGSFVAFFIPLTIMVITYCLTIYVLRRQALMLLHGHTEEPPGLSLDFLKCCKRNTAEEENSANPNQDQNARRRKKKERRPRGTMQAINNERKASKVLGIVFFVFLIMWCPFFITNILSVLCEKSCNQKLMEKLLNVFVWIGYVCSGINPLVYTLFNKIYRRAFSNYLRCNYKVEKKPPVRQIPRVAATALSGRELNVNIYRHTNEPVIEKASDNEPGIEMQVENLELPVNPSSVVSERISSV

Compound `O=c1[nH]c2ccccc2n1CN1CCN(c2ccc(F)cc2)CC1` [Serodolin] registered a duration of effect in experiment [1] (5 mg/kg) of more than 70 min. In experiment [1] (1 and 5 mg/kg, s.c.), the tail-immersion latencies entry is reported as “significant dose-dependent increase in the tail-immersion latencies”. Also, the “anti-nociceptive effect in 5-HT7R KO mice” value in experiment [1] (5-HT7R KO mice, subcutaneous) is “did not exert any anti-nociceptive effect”. Besides, in experiment [1] (s.c.), the “onset of effect post administration” value was not above 10 min. Further, in experiment [2], the “ERK phosphorylation in neuronal culture” value was “ERK phosphorylation also occurs in neuronal culture”. Besides, the IC50 (commonly the concentration at which inhibition is half-maximal) in experiment [3] (read-out: RLB 5-HT2Cedited IC50) is 1110 nM. Moreover, the Ki (as a rule, the equilibrium dissociation constant of an inhibitor or competing ligand from its target) in experiment [3] (read-out: RLB 5-HT2Cedited Ki) amounted to 182 nM.
